Experimental data reported in US20080090898A1, “Boosting immunity” (Mars, Incorporated, priority 2006, published 2008).

Tests used:
CD8 T cells = assay: Cytokine production of isolated CD8 T cells activated with anti CD3; assay type: cell-based, human
Experimental: CD4+ and CD8+ cells were isolated by positive selection. Briefly, 10×10^7 PBMC cells in 90 μl were incubated with 10 μl of either anti-CD4+ or CD8+ magnetic reagent and incubated at 4° C. for a half hour. The cells were then separated by magnetic cell sorting using a Miltenyi Biotec system, were counted and diluted to a concentration of 2×10^6 cells/ml with BioWhittaker X Vivo. Autologous plasma from the subject was added to a concentration of 1% by volume. A 96 well plate was treated with antihuman-CD3 in PBS (BD Biosciences) at a concentration of 0.5 μg/ml for 4 hours. After the 4 hour incubation, the plate was washed 4 times with PBS. Purified CD4+ or CD8+ cells were added to each well along with various concentrations of the individual test compounds or controls. The cultures were then incubated at 37° C. for 1 day and supernatants were harvested and stored at −80° C. Cytokine profiles were determined using a BD Cytometric Bead Array Human Inflammation KIT (BD Biosciences, San Diego, Calif.). […] Wash buffer (300 μl) was added and samples immediately analyzed on the flow cytometer after vortexing. Known positive and negative samples and including a standard curve were included with each assay and all samples analyzed in triplicate. […] Cells were resuspended in 1.0 ml PBS/BSA and analyzed on the flow cytometer.

CD4 T cells = assay: Cytokine production of isolated CD4 T cells activated with anti CD3; assay type: cell-based, human
Experimental: CD4+ and CD8+ cells were isolated by positive selection. Briefly, 10×10^7 PBMC cells in 90 μl were incubated with 10 μl of either anti-CD4+ or CD8+ magnetic reagent and incubated at 4° C. for a half hour. The cells were then separated by magnetic cell sorting using a Miltenyi Biotec system, were counted and diluted to a concentration of 2×10^6 cells/ml with BioWhittaker X Vivo. Autologous plasma from the subject was added to a concentration of 1% by volume. A 96 well plate was treated with antihuman-CD3 in PBS (BD Biosciences) at a concentration of 0.5 μg/ml for 4 hours. After the 4 hour incubation, the plate was washed 4 times with PBS. Purified CD4+ or CD8+ cells were added to each well along with various concentrations of the individual test compounds or controls. The cultures were then incubated at 37° C. for 1 day and supernatants were harvested and stored at −80° C. Cytokine profiles were determined using a BD Cytometric Bead Array Human Inflammation KIT (BD Biosciences, San Diego, Calif.). Briefly, 50 μl of culture supernates and standards were added to 100 μl of capture beads and detection reagent. Tubes were incubated for 3 hours at room temperature, washed with 1 ml of wash buffer and centrifuged prior to collection of the supernate. Wash buffer (300 μl) was added and samples immediately analyzed on the flow cytometer after vortexing. Known positive and negative samples and including a standard curve were included with each assay and all samples analyzed in triplicate. In addition, cultured cells (1×10^6) were washed in PBS with 0.1% bovine serum albumin (PBS/BSA), resuspended in 100 μl PBS/BSA, and incubated with anti-human CD3, CD19, CD69 and CD83 antibody for 1 hour at 4° C. Cells were resuspended in 1.0 ml PBS/BSA and analyzed on the flow cytometer.

COc1cc([C@H]2Oc3cc(O)cc(O)c3C[C@H]2O)ccc1O [3′-O-methyl-(−)-epicatechin]
IFN-γ amounts over the media controls (CD8 T cells): significantly higher amounts
IFN-γ levels over media control and (−)-epicatechin treated cells (CD4 T cells): significantly higher levels
IL-10 levels over media control and (−)-epicatechin treated cells (CD4 T cells): significantly higher levels
TNF-α levels over media control and (−)-epicatechin treated cells (CD4 T cells): significantly higher levels
